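These data come from cells grown in 96-well plates and exposed to compound for 48 hours at five concentrations. Abbreviation: GI50, concentration required for 50% inhibition of growth.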 Activity calls are given as the source filed them. No stated cut-off is given here; in the data, active = GI50 up to about 1.1 µM and inactive = higher. Residues, ends and D or L forms follow the SMILES beside them. *: point of attachment. Cbz = O=C(OCc1ccccc1)*; Boc = CC(C)(C)OC(=O)*; OSu = O=C1CCC(=O)N1O*; Bn = c1ccc(C*)cc1
Experiments:
Assay in all cases: NCI-60 cell line screen, 48 h
SNB-19 = tested on: SNB-19
SF-539 = tested on: SF-539
NCI-H460 = tested on: NCI-H460
M14 = tested on: M14
NCI-H522 = tested on: NCI-H522
ACHN = tested on: ACHN
OVCAR-8 = tested on: OVCAR-8
EKVX = tested on: EKVX
UACC-257 = tested on: UACC-257
TK-10 = tested on: TK-10
HCC 2998 = tested on: HCC 2998
CAKI-1 = tested on: CAKI-1
OVCAR-4 = tested on: OVCAR-4
RXF 393 = tested on: RXF 393
HCT-15 = tested on: HCT-15
MOLT-4 = tested on: MOLT-4
HL-60 = tested on: HL-60
T47D = tested on: T47D
NCI/ADR-RES = tested on: NCI/ADR-RES
BT-549 = tested on: BT-549

| Compound | GI50 (SNB-19) | GI50 (SF-539) | GI50 (NCI-H460) | GI50 (M14) | GI50 (NCI-H522) | GI50 (ACHN) | GI50 (OVCAR-8) | GI50 (EKVX) | GI50 (UACC-257) | GI50 (TK-10) | GI50 (HCC 2998) | GI50 (CAKI-1) | GI50 (OVCAR-4) | GI50 (RXF 393) | GI50 (HCT-15) [µM] | GI50 (MOLT-4) | GI50 (HL-60) | GI50 (T47D) | GI50 (NCI/ADR-RES) | GI50 (BT-549) |
| --- | --- | --- | --- | --- | --- | --- | --- | --- | --- | --- | --- | --- | --- | --- | --- | --- | --- | --- | --- | --- |
| CC(=O)OC1COC(N2C(=O)C(=O)c3cc(Br)c([N+](=O)[O-])cc32)C(OC(C)=O)C1OC(C)=O (configuration not stated) | > 100 µM (inactive) | > 100 µM (inactive) | > 100 µM (inactive) | > 100 µM (inactive) | 48.8 µM (inactive) | > 100 µM (inactive) | 83.6 µM (inactive) | 96.4 µM (inactive) | > 100 µM (inactive) | > 100 µM (inactive) | > 100 µM (inactive) | > 100 µM (inactive) | 42.6 µM (inactive) | 32.1 µM (inactive) | > 100 | 35 µM (inactive) | 31 µM (inactive) | – | – | – |
| COc1ccc(C2ON(c3ccccc3)CC=C2C)cc1 (configuration not stated) | > 100 µM (inactive) | > 100 µM (inactive) | > 100 µM (inactive) | 80.7 µM (inactive) | 19.2 µM (inactive) | 79.1 µM (inactive) | > 100 µM (inactive) | > 100 µM (inactive) | 42.5 µM (inactive) | > 100 µM (inactive) | > 100 µM (inactive) | 47.8 µM (inactive) | 34.5 µM (inactive) | 34.4 µM (inactive) | 65.9 | 52.4 µM (inactive) | 34.6 µM (inactive) | – | – | – |
| CCN(CC)c1ccc(/N=N/c2ccc([N+](=O)[O-])cc2OC(=O)/C=C/c2ccccc2)c(OC(=O)/C=C/c2ccccc2)c1 | > 24.2 µM (inactive) | 2.89 µM (inactive) | 0.7 µM (active) | 12.7 µM (inactive) | 23.2 µM (inactive) | 2.1 µM (inactive) | 6.27 µM (inactive) | 5.58 µM (inactive) | 2.23 µM (inactive) | 27.3 µM (inactive) | 12.7 µM (inactive) | 84.1 µM (inactive) | 21 µM (inactive) | 42.9 µM (inactive) | 19.5 | 5.16 µM (inactive) | 2.11 µM (inactive) | – | – | – |
| c1cc(-c2ccc(-c3ccsc3)s2)cs1 | – | 36.4 µM (inactive) | > 100 µM (inactive) | 31 µM (inactive) | > 100 µM (inactive) | 35.9 µM (inactive) | 48.8 µM (inactive) | 85.5 µM (inactive) | > 100 µM (inactive) | 76.4 µM (inactive) | > 100 µM (inactive) | 45.4 µM (inactive) | 18.1 µM (inactive) | 73.1 µM (inactive) | > 100 | 70.6 µM (inactive) | 19.2 µM (inactive) | > 100 µM (inactive) | 30.4 µM (inactive) | – |
| COc1ccc(-c2cc(=O)c3ccccc3o2)cc1N | 60.4 µM (inactive) | 33.9 µM (inactive) | 36 µM (inactive) | 27.1 µM (inactive) | 20.5 µM (inactive) | 37.1 µM (inactive) | 36.1 µM (inactive) | 16.4 µM (inactive) | 51.3 µM (inactive) | > 100 µM (inactive) | 38 µM (inactive) | 18.7 µM (inactive) | 40.9 µM (inactive) | 23.6 µM (inactive) | 46.6 | 26.3 µM (inactive) | 15.6 µM (inactive) | – | – | – |
| C[C@]12CC[C@H](O)CC1=CC[C@@H]1[C@@H]2CC[C@]2(C)/C(=N/OCCN3CCCC3)CC[C@@H]12 | 23.4 µM (inactive) | 14.6 µM (inactive) | 12 µM (inactive) | – | 13 µM (inactive) | 25.5 µM (inactive) | 16.3 µM (inactive) | 10.8 µM (inactive) | 14.6 µM (inactive) | 24.1 µM (inactive) | 22.3 µM (inactive) | 20.9 µM (inactive) | 16.4 µM (inactive) | 15.1 µM (inactive) | 12.1 | 14.1 µM (inactive) | 7.74 µM (inactive) | – | 18.2 µM (inactive) | 16.3 µM (inactive) |
| O=C1CCCCC/C1=C\c1ccccc1 | > 100 µM (inactive) | – | 90.6 µM (inactive) | > 100 µM (inactive) | > 100 µM (inactive) | > 100 µM (inactive) | – | > 100 µM (inactive) | > 100 µM (inactive) | > 100 µM (inactive) | > 100 µM (inactive) | > 100 µM (inactive) | 67.6 µM (inactive) | – | > 100 | 80.9 µM (inactive) | 18.2 µM (inactive) | > 100 µM (inactive) | – | > 100 µM (inactive) |
| CC(C)(C)OC(=O)NC(Cc1ccc(OCc2ccccc2)cc1)C(=O)NC(CCCCNC(=O)OCc1ccccc1)C(=O)NC(CCCCNC(=O)OCc1ccccc1)C(=O)ON1C(=O)CCC1=O (configuration not stated) (Boc-Tyr(Bn)-Lys(Cbz)-Lys(Cbz)-OSu; configuration not given here) | 16.6 µM (inactive) | – | 71.1 µM (inactive) | > 100 µM (inactive) | 16.4 µM (inactive) | 38.5 µM (inactive) | 29.1 µM (inactive) | > 100 µM (inactive) | > 100 µM (inactive) | > 100 µM (inactive) | – | 64.4 µM (inactive) | 60.7 µM (inactive) | 39.4 µM (inactive) | > 100 | > 100 µM (inactive) | – | 21 µM (inactive) | > 100 µM (inactive) | 17.9 µM (inactive) |

— ChEMBL document CHEMBL1201862, “PubChem BioAssay data set” (2004)
